Data on 18 compounds can be found in ChEMBL document CHEMBL5247642, “Structural Optimization of Fibroblast Growth Factor Receptor Inhibitors for Treating Solid Tumors” (J Med Chem, 2023).

Converted amounts (≈) assume the structure as drawn.

In the first data set the test system is SNU-16. As to the kind of experiment: Antiproliferative activity against human SNU-16 cells assessed as reduction in cell viability measured for 72 hrs. In kind it is functional, cell-based. Particulars: SNU-16, 72 h.
For the compound `C=CC(=O)N1CCC(n2nc3c(=O)[nH]nc(N)c3c2-c2oc3cc(F)ccc3c2C)CC1`, the IC50 (as a rule, the concentration that gives 50% inhibition) amounted to 1.5 nM.
Consider `C#CC(=O)N1CCCC(n2nc3c(=O)[nH]nc(N)c3c2-c2oc3ccc(C)cc3c2C)C1` (racemic), for which the IC50 was found to be 15.8 nM.

A further data set concerns the target T1, Fibroblast growth factor receptor 1 (Homo sapiens, UniProt P11362). Conditions: dose 100.0 nM, time 60.0 min.
Target sequence in this assay (P11362 22-822 limits assumed): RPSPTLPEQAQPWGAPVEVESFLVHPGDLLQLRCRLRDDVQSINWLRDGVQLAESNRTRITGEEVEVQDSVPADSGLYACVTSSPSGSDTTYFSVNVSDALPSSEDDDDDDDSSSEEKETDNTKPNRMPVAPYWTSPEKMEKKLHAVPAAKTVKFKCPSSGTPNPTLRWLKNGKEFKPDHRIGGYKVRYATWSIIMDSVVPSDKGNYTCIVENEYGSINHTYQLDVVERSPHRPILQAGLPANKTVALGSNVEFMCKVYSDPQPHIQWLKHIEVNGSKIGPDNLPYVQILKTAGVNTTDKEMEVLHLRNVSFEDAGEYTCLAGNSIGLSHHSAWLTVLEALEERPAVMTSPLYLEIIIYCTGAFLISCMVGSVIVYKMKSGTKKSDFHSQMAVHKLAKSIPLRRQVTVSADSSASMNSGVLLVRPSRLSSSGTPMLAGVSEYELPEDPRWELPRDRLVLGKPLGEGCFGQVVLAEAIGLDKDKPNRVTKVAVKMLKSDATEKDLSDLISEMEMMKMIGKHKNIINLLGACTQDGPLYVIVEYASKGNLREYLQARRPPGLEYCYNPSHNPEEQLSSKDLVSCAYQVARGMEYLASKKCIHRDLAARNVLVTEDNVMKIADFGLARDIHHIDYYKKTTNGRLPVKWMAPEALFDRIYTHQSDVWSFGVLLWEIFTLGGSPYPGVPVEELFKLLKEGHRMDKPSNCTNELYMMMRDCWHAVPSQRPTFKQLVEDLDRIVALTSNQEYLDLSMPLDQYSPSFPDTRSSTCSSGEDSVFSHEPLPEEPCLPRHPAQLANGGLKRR
As for `C=CC(=O)N1CCC(n2nc3c(=O)[nH]nc(N)c3c2-c2oc3cc(OC)cc(OC)c3c2C)CC1`, the inhibition (in general, the percentage by which the read-out fell short of the control) was 44%.
Same read-out and setting: as for `C=CC(=O)N1CCCC(n2nc3c(=O)[nH]nc(N)c3c2-c2oc3cc(OC)ccc3c2C)C1` (racemic), the figure is 11%; as for `C=CC(=O)N1CCCC(n2nc3c(=O)[nH]nc(N)c3c2-c2oc3cccc(OC)c3c2C)C1` (racemic), 32%.
In turn, `C=CC(=O)N1CCC(n2nc3c(=O)[nH]nc(N)c3c2-c2oc3ccc(F)cc3c2C)CC1` displayed an inhibition of 20%.
Same read-out and setting: as for `C=CC(=O)N1CCC(n2nc3c(=O)[nH]nc(N)c3c2-c2oc3ccc(C(F)(F)F)cc3c2C)CC1`, the figure is 27%; as for `C=CC(=O)N1CCC(n2nc3c(=O)[nH]nc(N)c3c2-c2oc3ccc(OC)cc3c2C)CC1`, 44%; as for `C=CC(=O)N1CCCC(n2nc3c(=O)[nH]nc(N)c3c2-c2oc3cc(OC)cc(OC)c3c2C)C1` (racemic), 40%.
The compound `C/C=C(\C)C(=O)N1CCCC(n2nc3c(=O)[nH]nc(N)c3c2-c2oc3ccc(C)cc3c2C)C1` (racemic) registered an inhibition of 37%.
Regarding `Cc1ccc2oc(-c3c4c(N)n[nH]c(=O)c4nn3C3CCCN(C(=O)CC#N)C3)c(C)c2c1` (racemic), the inhibition is 31%.
`C=C(C)C(=O)N1CCCC(n2nc3c(=O)[nH]nc(N)c3c2-c2oc3ccc(C)cc3c2C)C1` (racemic) returned an inhibition of 36%.

System in a further data set: not listed separately
The experiment in a line: Solubility of compound in PBS at pH 7.4 at 1 to 100 microg/ml by laser nephelometry analysis. In kind it is physicochemical. Conditions: dose 1-100 µg/ml.
In the case of `CN(C)C/C=C/C(=O)Nc1cc2c(Nc3ccc(F)c(Cl)c3)ncnc2cc1O[C@H]1CCOC1` [AFATINIB], the solubility (kinetic) (in general, solubility judged after dilution from a stock solution rather than from solid) turned out to be 50 µg/mL (≈ 103 µM).
On the same count and under the same terms, as for `C=C(F)C(=O)N1CCC(n2nc3c(=O)[nH]nc(N)c3c2-c2oc3ccc(C)cc3c2C)CC1`, the figure is 10 µg/mL (≈ 22.2 µM); as for `C=CC(=O)N1CCC[C@@H](n2nc(-c3ccc(Oc4ccccc4)cc3)c3c(N)ncnc32)C1` [IBRUTINIB], 10 µg/mL (≈ 22.7 µM).
On the same count and under the same terms, as for `C=CC(=O)N1CCC(n2nc3c(=O)[nH]nc(N)c3c2-c2oc3cc(F)ccc3c2C)CC1`, the figure is 10 µg/mL (≈ 22.9 µM); as for `Cc1ccc2oc(-c3c4c(N)n[nH]c(=O)c4nn3C3CCCN(C(=O)/C=C/CN(C)C)C3)c(C)c2c1` (racemic), 10 µg/mL (≈ 20.4 µM).

In a further data set the target is T1, Fibroblast growth factor receptor 1. The experiment in a line: Inhibition of FGFR1 (unknown origin) using Poly (Glu,Tyr) 4:1 as substrate incubated for 60 mins in presence of ATP by ELISA analysis.
Conditions: not given
Background: ELISA stands for enzyme-linked immunosorbent assay.
Target sequence in this assay (P11362 whole entry): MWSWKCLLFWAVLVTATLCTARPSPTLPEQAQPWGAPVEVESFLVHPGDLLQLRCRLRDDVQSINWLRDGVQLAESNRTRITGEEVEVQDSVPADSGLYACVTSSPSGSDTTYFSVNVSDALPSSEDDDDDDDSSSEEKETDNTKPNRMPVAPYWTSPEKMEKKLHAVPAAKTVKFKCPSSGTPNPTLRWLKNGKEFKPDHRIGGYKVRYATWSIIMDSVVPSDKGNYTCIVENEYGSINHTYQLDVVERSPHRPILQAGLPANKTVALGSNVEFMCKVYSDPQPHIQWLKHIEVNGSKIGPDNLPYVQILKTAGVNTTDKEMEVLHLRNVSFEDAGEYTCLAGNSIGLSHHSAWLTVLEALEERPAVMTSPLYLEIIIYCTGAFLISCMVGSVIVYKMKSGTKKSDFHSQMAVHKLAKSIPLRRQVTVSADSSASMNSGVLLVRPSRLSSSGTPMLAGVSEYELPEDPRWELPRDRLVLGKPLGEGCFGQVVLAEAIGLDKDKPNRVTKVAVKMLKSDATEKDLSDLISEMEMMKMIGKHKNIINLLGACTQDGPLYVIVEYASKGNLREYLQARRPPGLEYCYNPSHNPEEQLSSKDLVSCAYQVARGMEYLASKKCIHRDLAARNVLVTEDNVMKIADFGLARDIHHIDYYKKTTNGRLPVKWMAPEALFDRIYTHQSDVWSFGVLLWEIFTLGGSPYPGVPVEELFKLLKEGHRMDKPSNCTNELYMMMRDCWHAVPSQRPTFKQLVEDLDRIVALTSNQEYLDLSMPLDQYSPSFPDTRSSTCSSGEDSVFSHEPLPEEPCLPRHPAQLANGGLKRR
Turning to `C=CC(=O)N1CCC(n2nc3c(=O)[nH]nc(N)c3c2-c2oc3cc(OC)cc(OC)c3c2C)CC1`, the IC50 worked out at 84.4 nM.
Still for that read-out and setting: as for `CC/C=C/C(=O)N1CCCC(n2nc3c(=O)[nH]nc(N)c3c2-c2oc3ccc(C)cc3c2C)C1` (racemic), the figure is 122 nM; as for `C/C=C/C(=O)N1CCCC(n2nc3c(=O)[nH]nc(N)c3c2-c2oc3ccc(C)cc3c2C)C1` (racemic), 67.7 nM.
On the same count and under the same terms, as for `C=CC(=O)N1CCC(n2nc3c(=O)[nH]nc(N)c3c2-c2oc3cc(F)ccc3c2C)CC1`, the figure is 6.5 nM; as for `C#CC(=O)N1CCCC(n2nc3c(=O)[nH]nc(N)c3c2-c2oc3ccc(C)cc3c2C)C1` (racemic), 3.9 nM; as for `Cc1ccc2oc(-c3c4c(N)n[nH]c(=O)c4nn3C3CCCN(C(=O)/C=C/CN(C)C)C3)c(C)c2c1` (racemic), 117 nM.
